The source of these data is ChEMBL document CHEMBL5356948, “Microtubule stabilising peptides: new paradigm towards management of neuronal disorders” (RSC Med Chem, 2023).

Data set [1] addresses Tubulin. In words: Binding affinity to microtubules (unknown origin) assessed as dissociation constant. The data set is classed as protein-complex assay, Homo sapiens.
Data set [2] has as its target T1, Tubulin (Homo sapiens) (UniProt P68371+Q9H4B7+P0DPH7+P68366+Q13509+Q71U36+P04350+Q3ZCM7+P07437+P68363+Q9BQE3+Q6PEY2+Q13885+Q9BVA1+Q9BUF5). The experiment in a line: Binding affinity to tubulin (unknown origin) assessed as binding constant by […] analysis. The data set is classed as protein-complex assay.
Data set [3] addresses T1, Tubulin (Homo sapiens). The experiment in a line: Binding affinity to microtubules (unknown origin) assessed as binding constant by turbidity assay. The data set is classed as protein-complex assay.
The target of data set [4] is T1, Tubulin (Homo sapiens). In words: Binding affinity to tubulin (unknown origin) assessed as binding constant. Type of data set: protein-complex assay.
A short description of data set [5]: Ratio of drug concentration in CSF to plasma in Sprague-Dawley rat at 15 mg/kg,IV measured after 1 hrs. The data set is classed as ADME, organism-based. The settings on record: CSF and plasma.

Peptide text beside a SMILES is read from it.

On to `CC[C@H](C)[C@H](NC(=O)[C@H](CCC(N)=O)NC(=O)[C@@H](NC(=O)[C@H](CO)NC(=O)CNC(=O)CNC(=O)CNC(=O)[C@@H]1CCCN1C(=O)[C@@H](NC(=O)[C@H](Cc1c[nH]cn1)NC(=O)[C@H](CCCCN)NC(=O)[C@H](CCCCN)NC(=O)CNC(=O)CNC(=O)CNC(=O)[C@@H](N)CS)C(C)C)C(C)C)C(=O)N[C@H](C(=O)N[C@@H](Cc1ccc(O)cc1)C(=O)N[C@@H](CCCCN)C(=O)N1CCC[C@H]1C(=O)N[C@H](C(=O)N[C@@H](CC(=O)O)C(=O)N[C@@H](CC(C)C)C(=O)O)C(C)C)C(C)C`, for which the dissociation constant Kd (usually the equilibrium constant for the complex coming apart) in data set [1] was 64.1 µM.

Turning to `CC[C@H](C)[C@H](NC(=O)[C@H](CO)NC(=O)[C@@H](NC(=O)[C@H](C)NC(=O)[C@@H](N)CC(N)=O)C(C)C)C(=O)N[C@@H](CCC(N)=O)C(=O)O` (H-NAVSIQ-OH), the Activity in data set [2] was 1.14 10^3/M. Turning to `CC(C)C[C@H](NC(=O)[C@H](Cc1ccccc1)NC(=O)[C@@H](NC(=O)[C@H](CCC(=O)O)NC(=O)[C@@H](N)CC(N)=O)C(C)C)C(=O)N[C@@H](CC(=O)O)C(=O)N[C@H](C(=O)N[C@@H](CCC(N)=O)C(=O)O)[C@@H](C)O` (H-NEVFLDTQ-OH), the Kb in data set [3] was 2.65 10^4/M. In the case of `CC(C)C[C@H](NC(=O)[C@@H](N)CO)C(=O)N[C@@H](CCCCN)C(=O)N1CCC[C@H]1C(=O)N[C@@H](C)C(=O)N[C@@H](C)C(=O)N[C@@H](CC(N)=O)C(=O)N[C@@H](CC(C)C)C(=O)N1CCC[C@H]1C(=O)N[C@@H](CC(C)C)C(=O)N[C@@H](CCCNC(=N)N)C(=O)N[C@@H](Cc1ccccc1)C(=O)O` (H-SLKPAANLPLRF-OH), in data set [4], the Kb was 2.35 10^5/M.

Take `CC[C@H](C)[C@H](NC(=O)[C@H](CO)NC(=O)[C@@H](NC(=O)[C@@H]1CCCN1C(=O)[C@H](C)NC(=O)[C@@H](N)CC(N)=O)C(C)C)C(=O)N1CCC[C@H]1C(=O)N[C@@H](CCC(N)=O)C(=O)O` [DAVUNETIDE]: in data set [5], the Kp – broadly, tissue or fluid exposure divided by exposure in the circulation – at 1 h worked out at 0.138.
